From ChEMBL document CHEMBL4257513 (Medchemcomm, 2018) come the findings set out here.

The term IC50 denotes the concentration that gives 50% inhibition. As usually defined, the inhibition is the share of the control response that was lost under treatment. The Ki is a measure of affinity in units of concentration, obtained from inhibition or displacement.

Experiment [1] concerns the target T1, Tyrosinase (Agaricus bisporus, UniProt O42713).
T1 sequence (O42713 whole entry): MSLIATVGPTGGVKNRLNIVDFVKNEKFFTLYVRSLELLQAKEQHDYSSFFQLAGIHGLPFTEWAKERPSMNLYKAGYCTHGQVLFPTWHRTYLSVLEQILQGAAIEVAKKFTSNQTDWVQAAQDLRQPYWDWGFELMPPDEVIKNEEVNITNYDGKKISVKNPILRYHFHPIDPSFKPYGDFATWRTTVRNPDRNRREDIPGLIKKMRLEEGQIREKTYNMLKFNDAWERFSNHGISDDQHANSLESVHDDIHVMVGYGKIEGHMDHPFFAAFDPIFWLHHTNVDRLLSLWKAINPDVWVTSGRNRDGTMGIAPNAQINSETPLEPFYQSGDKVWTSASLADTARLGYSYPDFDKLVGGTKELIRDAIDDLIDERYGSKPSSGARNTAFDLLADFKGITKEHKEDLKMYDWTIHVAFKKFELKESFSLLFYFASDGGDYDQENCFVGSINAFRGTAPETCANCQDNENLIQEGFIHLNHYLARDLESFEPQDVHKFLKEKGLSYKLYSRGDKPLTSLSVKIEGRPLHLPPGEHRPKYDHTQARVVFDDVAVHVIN
Description: Inhibition of mushroom tyrosinase using L-dopa as substrate preincubated for 10 mins followed by substrate addition and measured for 1 min by spectrophotometric method

The target of experiment [2] is T2, Tyrosinase (Agaricus bisporus) (UniProt O42713).
T2 sequence (whole entry): T1 sequence (O42713 whole entry)
As to the kind of experiment: Inhibition of mushroom tyrosinase at 100 uM using L-dopa as substrate preincubated for 10 mins followed by substrate addition and measured for 1 min by spectrophotometric method relative to control.

Experiment [3] deals with T2, Tyrosinase (Agaricus bisporus). As to the kind of experiment: Potency index, ratio of kojic acid IC50 to test compound IC50 for mushroom tyrosinase.
Experiment [4] shares this target. As to the kind of experiment: Reversible inhibition of mushroom tyrosinase at 5 to 20 uM using L-dopa as substrate preincubated for 10 mins followed by substrate addition and measured for 1 min by spectrophotometric method.
In experiment [5] the target is T1, Tyrosinase. As to the kind of experiment: Mixed-type inhibition of mushroom tyrosinase using varying levels of L-dopa as substrate preincubated for 10 mins followed by substrate addition and measured for 1 min by Lineweaver-burk plot analysis.
Experiment [6] deals with T1, Tyrosinase. As to the kind of experiment: Mixed-type inhibition of mushroom tyrosinase assessed as inhibitory constant for enzyme-substrate complex using varying levels of L-dopa as substrate preincubated for 10 mins followed by substrate addition and measured for 1 min by Lineweaver-burk plot analysis.
In experiment [7] the target is T2, Tyrosinase (Agaricus bisporus). In words: Reversible inhibition of mushroom tyrosinase at 2 to 20 uM using L-dopa as substrate preincubated for 10 mins followed by substrate addition and measured for 1 min by spectrophotometric method.
For experiment [8] the target is unchanged. As to the kind of experiment: Reversible inhibition of mushroom tyrosinase up to 5 uM using L-dopa as substrate preincubated for 10 mins followed by substrate addition and measured for 1 min by spectrophotometric method.
The target in experiment [9] is T1, Tyrosinase. As to the kind of experiment: Noncompetitive inhibition of mushroom tyrosinase assessed as inhibitory constant for enzyme-substrate complex using varying levels of L-dopa as substrate preincubated for 10 mins followed by substrate addition and measured for 1 min by Lineweaver-burk plot analysis.
In experiment [10] the target is T1, Tyrosinase. As to the kind of experiment: Noncompetitive inhibition of mushroom tyrosinase using varying levels of L-dopa as substrate preincubated for 10 mins followed by substrate addition and measured for 1 min by Lineweaver-burk plot analysis.

Structures are written as SMILES. Active and inactive are the calls of the source. No cut-off for these calls is given here. Some results are limits rather than exact numbers.

With `COc1ccc(C(C)=O)c(OC(=O)/C=C/c2ccccc2)c1`, the half-inhibitory concentration (IC50) against Tyrosinase [1] was above 100 µM. The same molecule yielded an inhibition in experiment [2] below 40%.

Molecule `COc1ccc(C(C)=O)c(OC(=O)/C=C/c2ccc(O)c(OC)c2)c1` registered an IC50 against Tyrosinase [1] above 100 µM. The inhibition in experiment [2] was below 40%.

In turn, `COc1ccc(C(C)=O)c(O)c1` [PAEONOL] yielded an IC50 at Tyrosinase [1] of 121 µM.

Regarding `Cc1ccc(C(C)C)c(OC(=O)/C=C/c2ccc(O)cc2)c1`, the Ratio IC50 in [3] was 3. In addition, the inhibition result in experiment [4] was “Active”. On Tyrosinase [1], this molecule yielded an IC50 of 10.6 µM. This molecule also had an inhibition in experiment [2] above 40%. The Ki at Tyrosinase [5] amounted to 8 µM; on Tyrosinase [6] it was 72.2 µM.

`Cc1ccc(C(C)C)c(OC(=O)/C=C/c2ccc(Cl)cc2)c1`: on Tyrosinase [1], the half-maximal inhibitory concentration (IC50) was above 100 µM. Also, the inhibition in [2] is below 40%.

The molecule `COc1cc(/C=C/C(=O)Oc2cc(C)ccc2C(C)C)ccc1O` yielded an IC50 on Tyrosinase [1] above 100 µM. This molecule yielded an inhibition in experiment [2] below 40%.

As for `COc1ccc(C(C)=O)c(OC(=O)/C=C/c2ccc(F)cc2)c1`, on Tyrosinase [1], inhibition was half-maximal at 8.3 µM (IC50). In addition, the inhibition entry in experiment [7] was “Active”. Besides, the inhibition in experiment [2] is above 40%. Also, the inhibition constant Ki was 10 µM at Tyrosinase [5] and 35.6 µM at Tyrosinase [6].

In turn, `Cc1ccc(C(C)C)c(OC(=O)/C=C/c2ccc(F)cc2)c1` returned an IC50 against Tyrosinase [1] above 100 µM. Moreover, the inhibition in experiment [2] is below 40%.

In the case of `COc1ccc(C(C)=O)c(OC(=O)/C=C/c2ccc(C)cc2)c1`, inhibition against Tyrosinase [1] was half-maximal at 39 µM (IC50). In addition, the inhibition in [2] is above 40%.

Turning to `COc1ccc(/C=C/C(=O)Oc2cc(C)ccc2C(C)C)cc1`, the 50% inhibitory concentration (IC50) on Tyrosinase [1] is above 100 µM. Moreover, the inhibition in [2] was below 40%.

At Tyrosinase [1], `Cc1ccc(C(C)C)c(OC(=O)/C=C/c2ccccc2)c1` had a 50% inhibitory concentration (IC50) above 100 µM. The molecule also showed an inhibition in experiment [2] below 40%.

At Tyrosinase [1], `COc1ccc(C(C)=O)c(OC(=O)/C=C/c2ccc(Cl)cc2)c1` had an IC50 of 164 µM. The molecule also showed an inhibition in experiment [2] above 40%.

On Tyrosinase [1], `O=C(O)/C=C/c1ccc(O)cc1` [COUMARIC ACID] had a concentration for half-maximal inhibition (IC50) of 4710 µM.

Take `COc1ccc(/C=C/C(=O)Oc2cc(OC)ccc2C(C)=O)cc1`: the half-maximal inhibitory concentration (IC50) against Tyrosinase [1] came out at 77.4 µM. Besides, the inhibition in [2] was above 40%.

Take `COc1ccc(C(C)=O)c(OC(=O)/C=C/c2ccc(O)cc2)c1`: in experiment [3], the Ratio IC50 was determined as 16. On Tyrosinase [1], this molecule had an IC50 of 2 µM. Moreover, the inhibition result in experiment [8] was “Active”. In experiment [2], this molecule returned an inhibition above 40%. Also, the Ki at Tyrosinase [9] and on Tyrosinase [10] was 3.8 µM in each case.

As for `Cc1ccc(/C=C/C(=O)Oc2cc(C)ccc2C(C)C)cc1`, the IC50 at Tyrosinase [1] was above 100 µM. Also, the inhibition in [2] was below 40%.
